Measured values as given in patent publication US9328374B2, “Selective culture medium and method for detecting carbapenem-resistant bacteria in a test sample” (Institut National de la Sante et de la Recherche Medicale …, priority 2011, dated 2016).

Assays:
E. coli = test: MIC of imipenem, ertapenem and meropenem; format: cell-based, Escherichia coli
C. freundii = test: MIC of imipenem, ertapenem and meropenem; format: cell-based, Citrobacter freundii
E. aerogenes = test: MIC of imipenem, ertapenem and meropenem; format: cell-based, Enterobacter aerogenes
P. mirabilis = test: MIC of imipenem, ertapenem and meropenem; format: cell-based
enterobacterial isolates = test: MIC of imipenem, ertapenem and meropenem (groups of isolates, other species); format: cell-based, Enterobacteriaceae
S. typhimurium = test: MIC of imipenem, ertapenem and meropenem; format: cell-based

C[C@@H](O)[C@H]1C(=O)N2C(C(=O)O)=C(SCCN=CN)C[C@H]12 [IPM, imipenem]
MIC (E. coli; E. coli DIH (VIM-19)): 8 µg/mL | MIC (E. coli; E. coli DIH, VIM-19): 8 µg/mL | MIC (E. coli; E. coli DIN, KPC-2 + TEM-1 + OXA-1): 1 µg/mL | MIC (E. coli; E. coli E14 (CTX-M-14)): 0.12 µg/mL | MIC (E. coli; E. coli E14, CTX-M-14, non-carbapenemase producer): 0.12 µg/mL | MIC (E. coli; E. coli ECA (ACC-1)): 0.12 µg/mL | MIC (E. coli; E. coli ECA, ACC-1, non-carbapenemase producer): 0.12 µg/mL | MIC (E. coli; E. coli EVB (VEB-1)): 0.12 µg/mL | MIC (E. coli; E. coli EVB, VEB-1, non-carbapenemase producer): 0.12 µg/mL | MIC (E. coli; E. coli FOR (CTX-M-15)): 0.12 µg/mL | MIC (E. coli; E. coli FOR, CTX-M-15, non-carbapenemase producer): 0.12 µg/mL | MIC (E. coli; E. coli GEN (NDM-1 + OXA-1 + CMY-30 + TEM-1)): 8 µg/mL | MIC (E. coli; E. coli GEN, NDM-1 + TEM-1 + CMY-30 + OXA-1): 8 µg/mL | MIC (E. coli; E. coli GOG (OXA-48 + CTX-M-24)): 0.5 µg/mL | MIC (E. coli; E. coli GUE (NDM-1 + OXA-1 + TEM-1)): 3 µg/mL | MIC (E. coli; E. coli GUE, NDM-1 + TEM-1 + OXA-1): 3 µg/mL | MIC (E. coli; E. coli HAN (OXA-48 + CTX-M-15)): 3 µg/mL | MIC (E. coli; E. coli HAN, OXA-48 + CTX-M-15): 3 µg/mL | MIC (E. coli; E. coli HB4 (OmpC-, OmpF-)): 0.12 µg/mL | MIC (E. coli; E. coli HB4, (OmpC-, OmpF-), non-carbapenemase producer, porin deficiency): 0.12 µg/mL | MIC (E. coli; E. coli IR5 (NDM-1 + CTX-M-15 + TEM-1)): 16 µg/mL | MIC (E. coli; E. coli IR5, NDM-1 + TEM-1 + CTX-M-15): 16 µg/mL | MIC (E. coli; E. coli JAP (IMP-1)): 0.5 µg/mL | MIC (E. coli; E. coli JAP, IMP-1): 0.5 µg/mL | MIC (E. coli; E. coli LIL, KPC-2 + TEM-1 + OXA-9): 2 µg/mL | MIC (E. coli; E. coli MAD (VIM-1 + CTX-M-3)): 1.5 µg/mL | MIC (E. coli; E. coli MAD, VIM-1+ CTX-M-3): 1.5 µg/mL | MIC (E. coli; E. coli MAR (Overexpressed AmpC)): 16 µg/mL | MIC (E. coli; E. coli MAR, Overexpressed AmpC, non-carbapenemase producer): 16 µg/mL | MIC (E. coli; E. coli MET (Chromosome-encoded extended-spectrum cephalosporinase)): 0.12 µg/mL | MIC (E. coli; E. coli MET, Chromosome-encoded extended-spectrum cephalosporinase, non-carbapenemase producer): 0.12 µg/mL | MIC (E. coli; E. coli NAA (OXA-48 + CTX-M-24)): 0.5 µg/mL | MIC (E. coli; E. coli OM3, OXA-48 + TEM-1 + CTX-M-15): 0.5 µg/mL | MIC (E. coli; E. coli OM20, NDM-1 + TEM-1 + CTX-M-15): 2 µg/mL | MIC (E. coli; E. coli OM22, OXA-48 + TEM-1 + CTX-M-15): 0.5 µg/mL | MIC (E. coli; E. coli PSP (KPC-2)): 0.5 µg/mL | MIC (E. coli; E. coli PSP, KPC-2 + TEM-1 + OXA-1): 0.5 µg/mL | MIC (E. coli; E. coli RIC (NDM-1 + OXA-1 + OXA-10 + CMY-16)): 1 µg/mL | MIC (E. coli; E. coli RIC, NDM-1 + CMY-16 + OXA-1 + OXA-10): 1 µg/mL | MIC (E. coli; E. coli ROB (OXA-48)): 0.5 µg/mL | MIC (E. coli; E. coli ROB, OXA-48): 0.5 µg/mL | MIC (E. coli; E. coli SYD (CMY-2)): 0.12 µg/mL | MIC (E. coli; E. coli SYD, CMY-2, non-carbapenemase producer): 0.12 µg/mL | MIC (E. coli; E. coli TWA, IMP-8 + SHV-12): 6 µg/mL | MIC (E. coli; E. coli ZAN, OXA-48 + TEM-1 + CTX-M-14): 0.38 µg/mL | MIC (E. coli; strain E. coli 1008, TEM-1 + CTX-M-1, non-carbapenemase producer): 0.19 µg/mL | MIC (E. coli; strain E. coli 1034, TEM-1 + SHV-38, non-carbapenemase producer): 0.19 µg/mL | MIC (E. coli; strain E. coli 1048, TEM-1 + SHV-2a, non-carbapenemase producer): 0.19 µg/mL | MIC (E. coli; strain E. coli 10121, CTX-M-2, non-carbapenemase producer): 0.19 µg/mL | MIC (E. coli; strain E. coli AME, OXA-48 + CTX-M-24): 0.25 µg/mL | MIC (E. coli; strain E. coli BON, OXA-48 + TEM-1 + CTX-M-24): 0.38 µg/mL | MIC (E. coli; strain E. coli BOU, OXA-48 + CTX-M-15): 0.5 µg/mL | MIC (E. coli; strain E. coli ECA, ACC-1, non-carbapenemase producer): 0.12 µg/mL | MIC (E. coli; strain E. coli EVB, VEB-1, non-carbapenemase producer): 0.12 µg/mL | MIC (E. coli; strain E. coli FOR, CTX-M-15, non-carbapenemase producer): 0.12 µg/mL | MIC (E. coli; strain E. coli HB4, (OmpC-, OmpF-), non-carbapenemase producer): 0.12 µg/mL | MIC (E. coli; strain E. coli JAP, IMP-1): 0.5 µg/mL | MIC (E. coli; strain E. coli MAR, Overexpressed AmpC, non-carbapenemase producer): 16 µg/mL | MIC (E. coli; strain E. coli MET, Chromosome-encoded extended-spectrum cephalosporinase, non-carbapenemase producer): 0.12 µg/mL | MIC (E. coli; strain E. coli ROB, OXA-48): 0.5 µg/mL | MIC (E. coli; strain E. coli SYD, CMY-2, non-carbapenemase producer): 0.12 µg/mL | MIC (C. freundii; C. freundii 1003, CTX-M-15 + TEM-1, non-carbapenemase producer): 0.38 µg/mL | MIC (C. freundii; C. freundii 7767 (wild type)): 0.25 µg/mL | MIC (C. freundii; C. freundii 7767, (wild type), non-carbapenemase producer): 0.25 µg/mL | MIC (C. freundii; C. freundii 10107 (TEM-1 + SHV-12)): 0.38 µg/mL | MIC (C. freundii; C. freundii 10107, TEM-1 + SHV-12, non-carbapenemase producer): 0.38 µg/mL | MIC (C. freundii; C. freundii 10135 (CTX-M-15)): 0.38 µg/mL | MIC (C. freundii; C. freundii 10135, CTX-M-15, non-carbapenemase producer): 0.38 µg/mL | MIC (C. freundii; C. freundii MAU (Overexpressed AmpC + TEM-3)): 1 µg/mL | MIC (C. freundii; C. freundii MAU, Overexpressed AmpC + TEM-3, non-carbapenemase producer): 1 µg/mL | MIC (C. freundii; C. freundii STE (NDM-1 + OXA-1 + OXA-9 + OXA-10 + CTX-M-15 + TEM-1)): >32 µg/mL | MIC (C. freundii; C. freundii STE, NDM-1 + TEM-1 + CTX-M-15 + VIM-4 + OXA-1 + OXA-9 + OXA-10 + OXA-181): >32 µg/mL | MIC (C. freundii; strain C. freundii 10107, TEM-1 + SHV-12, non-carbapenemase producer): 0.38 µg/mL | MIC (C. freundii; strain C. freundii 10135, CTX-M-15, non-carbapenemase producer): 0.38 µg/mL | MIC (C. freundii; strain C. freundii MAU, Overexpressed AmpC + TEM-3, non-carbapenemase producer): 1 µg/mL | MIC (E. aerogenes; E. aerogenes 1009, TEM-24, non-carbapenemase producer): 0.19 µg/mL | MIC (E. aerogenes; E. aerogenes 1085 (TEM-24)): 0.12 µg/mL | MIC (E. aerogenes; E. aerogenes 1085, TEM-24, non-carbapenemase producer): 0.12 µg/mL | MIC (E. aerogenes; strain E. aerogenes 1085, TEM-24, non-carbapenemase producer): 0.12 µg/mL | MIC (P. mirabilis; P. mirabilis 1031 (CTX-M-14 + TEM-1 + SHV-11)): 1.5 µg/mL | MIC (P. mirabilis; P. mirabilis 1031, CTX-M-14 + TEM-1 + SHV-11, non-carbapenemase producer): 1.5 µg/mL | MIC (P. mirabilis; P. mirabilis PMA (ACC-1)): 0.25 µg/mL | MIC (P. mirabilis; P. mirabilis PMA, ACC-1, non-carbapenemase producer): 0.25 µg/mL | MIC (enterobacterial isolates; S. marcescens 0911033, IMP-1): >32 µg/mL | MIC (enterobacterial isolates; S. marcescens 1008091, VIM-1+ CTX-M-15): >32 µg/mL | MIC (enterobacterial isolates; S. marcescens C7052, KPC-2 + TEM-1 + SHV-12): >32 µg/mL | MIC (enterobacterial isolates; S. marcescens D6403, KPC-2 + TEM-1): >32 µg/mL | MIC (S. typhimurium; S. typhimurium 1081 (CTX-M-1)): 0.25 µg/mL | MIC (S. typhimurium; S. typhimurium 1081, CTX-M-1, non-carbapenemase producer): 0.25 µg/mL | MIC (S. typhimurium; strain S. typhimurium 1081, CTX-M-1, non-carbapenemase producer): 0.25 µg/mL
